This is an account of results in patent publication US5166348A, “Bornyl and isobornyl esters of carboxylic acids of condensed tetrahydroquinoxalines” (Uralsky politekhnichesky institut, priority 1989, dated 1992).

Where “and” joins values, the source holds several entries; their conditions need not be identical. Equal values may be shown once. Entries after “also recorded” stand apart in the source; their conditions may differ. Read-outs that look alike come from different tables or passages of the source.

Data set [1] can be described thus: acute toxicity, oral, mongrel albino mice. The note with it: mouse, in vivo. Here is the method: Acute toxicity of the proposed compounds 1a through 1e was tested in experiments on mongrel albino mice with oral administration of the drug.
The test system of data set [2] is mice. The note with it: mouse, in vivo.
The test system of data set [3] is influenza virus B. In kind it is in vivo, albino mice. The note with it: for % of diseased mice and of died mice / % of diseased mice and died mice / Efficiency, % / Elongation of animal life in test group (compared with control) / Mean Incubation / Protection factor / Elongation of animals life in test group compared with control / Mean incubation period / Factor of reduction of number of diseased mice (protection factor): influenza virus B; for Factor of reduction of number of diseased mice (protection factor): compared with control.

Data set [4] deals with influenza virus. Type of data set: in vivo, mice.
In data set [5] the test system is RS virus. Briefly: RS virus reproduction in the lungs of infected cotton rats. Type of data set: in vivo. Particulars: intranasally. Here is the method:
(§1) Activity of the proposed compound 1a to the agent causing respiratory syncytial infection was tested. […]

The subject of data set [6] is influenza virus C, C(Ulan-Ude)131/86. Type of data set: in vivo, chick embryos.
Data set [7] concerns influenza virus. The note with it: given intranasally to pregnant mice + influenza virus.
Data set [8] deals with RS virus (strain Novoshakhtinsky 3080). Briefly: reproduction of RS virus in L-41 tissue culture. Type of data set: cell-based. Here is the method:
as §1

In data set [9] the test system is mice. Briefly: toxicity for mice. Particulars: compared with remantadine.
Data set [10] concerns tick-borne encephalitis virus (Absettar strain). In kind it is in vivo, mongrel albino mice.
For data set [11], the system named is viruses. Briefly: spectrum of antiviral activity, summary.
Data set [12] concerns influenza virus C, C(Leningrad)393/87. In kind it is in vivo, chick embryos.
The test system of data set [13] is influenza virus C, C(USA)1233/47. Type of data set: in vivo, chick embryos.
For data set [14], the system named is influenza virus. In kind it is in vivo, mice. This is another data set of the same source.
Data set [15] concerns influenza virus C, C(Leningrad)412/83. Type of data set: in vivo, chick embryos.
Data set [16] concerns influenza virus C. Briefly: activity against influenza virus C in chick embryos, summary. Type of data set: in vivo. From the text:
The activity of the proposed compound 1a against influenza virus C has been studied.

Setting [17] is: 0.2 ml of 0.5% solution into the stomach.
[18] abbreviates: 1 mg/mouse, 24 hours and 1 hour before and 24, 48 and 72 hours after infection.

The LD50 is the dose at which mortality reaches 50%.

In [1], `CCC(N)C12CC3CC(CC(C3)C1)C2` (stereo not shown) [adapromine, reference compound] came in with an LD50 of 45 mg/kg. Further, the Toxicity for mice in data set [2] was 6 mg/mouse. In addition, the “% of diseased mice and of died mice” value in [3] (per os, 1 mg per animal) was 25% and 12% and 20%. In addition, the “Minimum effective dose against influenza viruses, type B” value in data set [3] (influenza virus type B) is given as 1.0 mg/mouse. Besides, the “Chemotherapeutic index for influenza viruses, type B” value in data set [3] (influenza virus type B, toxicity vs minimum effective dose) was 6.

On to `CC1=C(C(=O)OC2CC3CCC2(C)C3(C)C)C2Nc3ccccc3N(C)C2O1` (stereo not shown) [compound 1a, isobornyl ester of 2,9-dimethyl-3a,4,9,9a-tetrahydrofuro [2,3-b] quinoxaline-3-carboxylic acid], for which the “% of lethal cases among mice after infection of their mothers, in 6 days” value in data set [4] (given to female mice + virus, 6 days) is 3%. Besides, the “% of lethal cases among mice after infection of their mothers, in 7 days” value in data set [4] (given to female mice + virus, 7 days) is 10%. Moreover, the “% of lethal cases among mice after infection of their mothers, in 8 days” value in [4] (given to female mice + virus, 8 days) came to 10%. In data set [4] (given to female mice + virus, 9 days), the “% of lethal cases among mice after infection of their mothers, in 9 days” value worked out at 10%. In data set [4] (given to female mice + virus, 10 days), the “% of lethal cases among mice after infection of their mothers, in 10 days” value is 13%. In data set [4] (given to pregnant or nursing mice), the “protection of sucklings (in words)” value is “protects the sucklings from trasnplacental infection with the virus or infection from a diseased mouse”. For the same compound, the “virus reproduction in the lungs (in words)” value in data set [5] is given as “decreases the virus reproduction in the lungs of the animals”. Besides, in data set [5] (lungs, vs control group), the “mean titre of the virus lower than in control group” value was 1.8-2.0 lg. In addition, the “Titre of virus (lg) in embryo” value in data set [6] is 3.6 ± 0.3 lg. Also, the “Inhibition of virus reproduction (lg)” value in data set [6] (vs solvent control) was determined as 1.6 lg. Besides, the “Mortality rate among suckling mice, %, 4 days after infection” value in data set [7] (4 days) is 0%. In addition, the “Mortality rate among suckling mice, %, 7 days after infection” value in data set [7] (7 days) is 7%. Also, the “Mortality rate among suckling mice, %, 8 days after infection” value in data set [7] (8 days) was found to be 23%. Also, the “Mortality rate among suckling mice, %, 11 days after infection” value in data set [7] (11 days) was 23%. Moreover, in [8] (L-41 tissue culture), the “% of test tubes with degenerated culture” value is recorded as 17% and the “Intensity of reduction of quantity of test tubes with degenerated cultures” value was found to be 0.18. The “Factor of reduction of quantity of test tubes with degenerated cultures” value in data set [8] (L-41 tissue culture, vs 0.9% NaCl solution) is reported as 5.3. The “effect on reproduction of RS virus (in words)” value in data set [8] (tissue culture L-41, strain Novoshakhtinsky 3030 as printed in text) is reported as “inhibits reproduction of RS virus”. For the same compound, in [9], the “toxicity lower than that of remantadine, times” value is listed as 2.5-3 times. In data set [10] (setting [17]), the “Efficiency, %” value turned out to be 70%; the “Elongation of animal life in group of treated animals” value came out at 1.5 days; the “Mean incubation period” value amounted to 11.4 days. Moreover, the “% of diseased mice and mice which died” value in data set [10] (0.2 ml of 0.5% solution into the stomach, 4 h before and 24, 48, 72, 96 h after infection) was found to be 18.7%. In [10] (0.2 ml of 0.5% solution into the stomach, vs physiological saline control), the “Factor of reduction of quantity of diseased mice (protective factor)” value was 3.3. Also, the “activity against the causative agent of tick-borne encephalitis (in words)” value in data set [10] (mouse, in vivo) is “antiviral activity of the compound against the causative agent of tick-borne encephalitis; also recorded: highly active against the causative agent of tick-borne encephalitis”. Moreover, the mortality rate in [10] (test group, control group 62.5%) is listed as 18.7%. For the same compound, the “decrease of mortality rate, times less” value in [10] (test vs control group) was found to be 3.3 times. Also, in data set [11], the “spectrum of antiviral activity (in words)” value is “most pronounced effect against the virus of the tick-borne encephalitis, epidemic, influenza viruses A, B and C, including those resistant to remantadine, and also the virus causing respiratory syncytial infection”. Besides, the “Titre of virus (lg) in embryo” value in [12] is recorded as 3.2 ± 0.3 lg. Further, the “Inhibition of virus reproduction (lg)” value in [12] (vs solvent control) was 1.3 lg. Moreover, the “Titre of virus (lg) in embryo” value in data set [13] amounted to 2.8 ± 0.4 lg. Further, the “Inhibition of virus reproduction (lg)” value in data set [13] (vs solvent control) stood at 1.7 lg. For the same compound, the “protection and growth of nurslings, course of infection (in words)” value in [14] (mouse, in vivo) was “protects their nurslings from infection and death; moreover, it promotes their normal growth as estimated by gain in weight; also recorded: almost does not differ from the weight of young mice borne from control mice; also recorded: promotes an asymptomatic course of infection in pregnant mice and formation of immunity in their posterity”. For the same compound, the “Mean weight of suckling mice, g, day 0” value in data set [14] (plus influenza virus, day 0) was found to be 1.5 g. The “Mean weight of suckling mice, g, day 3” value in [14] (plus influenza virus, day 3) is on record as 2.6 g. For the same compound, the “Mean weight of suckling mice, g, day 5” value in data set [14] (plus influenza virus, day 5) came out at 3.4 g. Moreover, the “Mean weight of suckling mice, g, day 7” value in data set [14] (plus influenza virus, day 7) was 3.4 g. Also, in [14] (plus influenza virus, day 9), the “Mean weight of suckling mice, g, day 9” value turned out to be 3.6 g. Moreover, the Toxicity for mice in data set [2] was 16 mg/mouse. Further, the “Titre of virus (lg) in embryo” value in data set [15] is 3.5 ± 0.3 lg. The “Inhibition of virus reproduction (lg)” value in [15] (vs solvent control) amounted to 1.5 lg. In data set [16], the “activity against influenza virus C (in words)” value is reported as “inhibits reproduction of influenza virus C”. In [3] (setting [18]), the “% of diseased mice and died mice” value is 20%; the “Efficiency, %” value is 73%; the “Elongation of animal life in test group (compared with control)” value is 2.4 days; the “Mean Incubation” value is given as 11.0. In [3] (setting [18]), this compound returned a Protection factor of 3.7. In data set [3] (per os, 1 mg per animal), the “% of diseased mice and of died mice” value turned out to be 20%; the “Efficiency, %” value came to 73%; the “Elongation of animals life in test group compared with control” value turned out to be 2.4 days; the “Mean incubation period” value worked out at 11.0 days. Besides, in data set [3] (per os, 1 mg per animal), the “Factor of reduction of number of diseased mice (protection factor)” value (shortened to “Factor of reduction … (protection factor)”) is on record as 3.7. Besides, the “Minimum effective dose against influenza viruses, type B” value in data set [3] (influenza virus type B) is listed as 0.04 mg/mouse.

For the compound `CCN1c2ccccc2NC2C(C(=O)OC3CC4CCC3(C)C4(C)C)=C(C)OC21` (stereo not shown) [compound 1b, isobornyl ester of 2-methyl-9-ethyl-3a,4,9,9a-tetrahydrofuro [2,3-b] quinoxaline-3-carboxylic acid], in data set [3] (per os, 1 mg per animal), the “% of diseased mice and of died mice” value is reported as 27%; the “Efficiency, %” value was determined as 65%; the “Elongation of animals life in test group compared with control” value stood at 2.2 days; the “Mean incubation period” value amounted to 10.0 days. For the same compound, the “Factor of reduction … (protection factor)” value in [3] (per os, 1 mg per animal) stood at 2.9.

Consider `CCN1c2ccccc2NC2C(C(=O)OC3CC4CCC3(C)C4(C)C)=C(C)OC21` (stereo not shown) [compound 1c, bornyl-2-methyl-9-ethyl-3a,4,9,9a-tetrahydrofuro [2,3-b] quinoxaline-3-carboxylate], for which, in data set [3] (per os, 1 mg per animal), the “% of diseased mice and of died mice” value worked out at 25%; the “Efficiency, %” value was 64%; the “Elongation of animals life in test group compared with control” value is reported as 2.4 days; the “Mean incubation period” value was determined as 11.0 days. Also, in data set [3] (per os, 1 mg per animal), the “Factor of reduction … (protection factor)” value turned out to be 2.8.

`CC(N)C12CC3CC(CC(C3)C1)C2` (stereo not shown) [remantadine, reference compound] registered a median lethal dose (LD50) in data set [1] of 640 mg/kg. Besides, in [2], the Toxicity for mice worked out at 6 mg/mouse. Further, in [3] (setting [18]), the “% of diseased mice and died mice” value was 20%; the “Efficiency, %” value turned out to be 73%; the “Elongation of animal life in test group (compared with control)” value worked out at 2.3 days; the “Mean Incubation” value is on record as 10.9. Moreover, the Protection factor in data set [3] (setting [18]) is recorded as 3.7.

“bornyl-3a,5-dimethyl-2-phenyl-3a,4,4a,5,10,10a-hexahydro-1,3,4-thiadiazole[2,3-a] quinoxaline (2,3-d) pyrrole-4-carboxylate [compound 1d]”: in [3] (per os, 1 mg per animal), the “% of diseased mice and of died mice” value was found to be 20%; the “Efficiency, %” value amounted to 72%; the “Elongation of animals life in test group compared with control” value came to 2.5 days; the “Mean incubation period” value turned out to be 11.0 days. Besides, the “Factor of reduction … (protection factor)” value in data set [3] (per os, 1 mg per animal) is reported as 3.6.

In the case of “isobornyl 3a,5-dimethyl-2-phenyl-3a,4,4a,5,10,10a-hexahydro-1,3,4-thiadiazole [2,3-a] quinoxaline [2,3-d]-pyrrole-4-carboxylate [compound 1e]”, in [3] (per os, 1 mg per animal), the “% of diseased mice and of died mice” value came to 21%; the “Efficiency, %” value came out at 71%; the “Elongation of animals life in test group compared with control” value is reported as 2.4 days; the “Mean incubation period” value came to 10.9 days. In addition, the “Factor of reduction … (protection factor)” value in data set [3] (per os, 1 mg per animal) was 3.4.
